# Source: the supplement of paper PMC10307832
# Columns and labels:
# Test in all cases: relative viability (nuclei count vs DMSO), 5 days (fraction); higher = more cells survive
# [1] = tested on: ABC-1
# How it was run: (§1)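 Relative viability equals treated-well nuclei counts divided by vehicle-well nuclei counts. Counts came from 4× images of lung cancer cell lines grown in 1536-well plates for 5 days after pin-tool dosing on the day after seeding. Dosing used one drug alone or a fixed anchor-drug dose plus five library-drug doses (not always all listed) in √10 steps, and values are medians of duplicate plates.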
# [2] = tested on: EKVX
# How it was run: as §1
# [3] = tested on: NCI-H1623
# How it was run: as §1
# [4] = tested on: NCI-H1648
# How it was run: as §1
# [5] = tested on: NCI-H2126
# How it was run: as §1
# [6] = tested on: NCI-H522
# How it was run: as §1
smiles,measurement,setting,value
CC1(C)CCC(c2ccc(Cl)cc2)=C(CN2CCN(c3ccc(C(=O)NS(=O)(=O)c4ccc(N[C@H](CCN5CCOCC5)CSc5ccccc5)c(S(=O)(=O)C(F)(F)F)c4)cc3)CC2)C1 [Navitoclax] + Cc1cc(Nc2cc(N3CCN(C)CC3)nc(Sc3ccc(NC(=O)C4CC4)cc3)n2)n[nH]1 [Tozasertib] (partner 0.1 µM),relative viability,[1]; first compound 0.005 µM,0.158
same,relative viability,[1]; first compound 0.01581 µM,0.19
same,relative viability,[1]; first compound 0.05 µM,0.144
same,relative viability,[1]; first compound 0.1581 µM,0.164
same,relative viability,[1]; first compound 0.5 µM,0.141
same,relative viability,[2]; first compound 0.005 µM,0.411
same,relative viability,[2]; first compound 0.01581 µM,0.388
same,relative viability,[2]; first compound 0.05 µM,0.323
same,relative viability,[2]; first compound 0.1581 µM,0.44
same,relative viability,[2]; first compound 0.5 µM,0.294
same,relative viability,[3]; first compound 0.005 µM,0.406
same,relative viability,[3]; first compound 0.01581 µM,0.405
same,relative viability,[3]; first compound 0.05 µM,0.415
same,relative viability,[3]; first compound 0.1581 µM,0.464
same,relative viability,[3]; first compound 0.5 µM,0.4
same,relative viability,[4]; first compound 0.005 µM,0.609
same,relative viability,[4]; first compound 0.01581 µM,0.506
same,relative viability,[4]; first compound 0.1581 µM,0.459
same,relative viability,[4]; first compound 0.5 µM,0.575
same,relative viability,[5]; first compound 0.005 µM,0.817
same,relative viability,[5]; first compound 0.01581 µM,0.906
same,relative viability,[5]; first compound 0.05 µM,0.858
same,relative viability,[5]; first compound 0.1581 µM,0.823
same,relative viability,[5]; first compound 0.5 µM,0.749
same,relative viability,[6]; first compound 0.005 µM,0.574
same,relative viability,[6]; first compound 0.01581 µM,0.535
same,relative viability,[6]; first compound 0.05 µM,0.607
same,relative viability,[6]; first compound 0.1581 µM,0.631
same,relative viability,[6]; first compound 0.5 µM,0.669
Oc1nc(-c2ccc(C(F)(F)F)cc2)nc2c1CSCC2 [XAV939] + COc1cccc2cc(-c3nc([C@H]4CC[C@H](C(=O)O)CC4)n4ncnc(N)c34)[nH]c12 [OSI-027] (partner 0.5 µM),relative viability,[1]; first compound 0.08 µM,0.44
same,relative viability,[1]; first compound 0.253 µM,0.532
same,relative viability,[1]; first compound 0.8 µM,0.374
same,relative viability,[1]; first compound 2.53 µM,0.28
same,relative viability,[2]; first compound 0.08 µM,0.719
same,relative viability,[2]; first compound 0.253 µM,0.686
same,relative viability,[2]; first compound 0.8 µM,0.593
same,relative viability,[2]; first compound 2.53 µM,0.532
same,relative viability,[3]; first compound 0.08 µM,0.364
same,relative viability,[3]; first compound 0.253 µM,0.386
same,relative viability,[3]; first compound 0.8 µM,0.318
same,relative viability,[3]; first compound 2.53 µM,0.4
same,relative viability,[4]; first compound 0.08 µM,0.273
same,relative viability,[4]; first compound 0.8 µM,0.236
same,relative viability,[4]; first compound 2.53 µM,0.225
same,relative viability,[5]; first compound 0.08 µM,0.651
same,relative viability,[5]; first compound 0.253 µM,0.649
same,relative viability,[5]; first compound 0.8 µM,0.682
same,relative viability,[5]; first compound 2.53 µM,0.61
same,relative viability,[6]; first compound 0.08 µM,0.564
same,relative viability,[6]; first compound 0.253 µM,0.696
same,relative viability,[6]; first compound 0.8 µM,0.68
same,relative viability,[6]; first compound 2.53 µM,0.643
Oc1nc(-c2ccc(C(F)(F)F)cc2)nc2c1CSCC2 [XAV939] + Cc1cc(Nc2cc(N3CCN(C)CC3)nc(Sc3ccc(NC(=O)C4CC4)cc3)n2)n[nH]1 [Tozasertib] (partner 0.1 µM),relative viability,[1]; first compound 0.08 µM,0.126
same,relative viability,[1]; first compound 0.253 µM,0.169
same,relative viability,[1]; first compound 0.8 µM,0.166
same,relative viability,[1]; first compound 2.53 µM,0.165
same,relative viability,[2]; first compound 0.08 µM,0.47
same,relative viability,[2]; first compound 0.253 µM,0.36
same,relative viability,[2]; first compound 0.8 µM,0.372
same,relative viability,[2]; first compound 2.53 µM,0.29
same,relative viability,[3]; first compound 0.08 µM,0.403
same,relative viability,[3]; first compound 0.253 µM,0.414
same,relative viability,[3]; first compound 0.8 µM,0.386
same,relative viability,[3]; first compound 2.53 µM,0.373
same,relative viability,[4]; first compound 0.08 µM,0.664
same,relative viability,[4]; first compound 0.8 µM,0.453
same,relative viability,[4]; first compound 2.53 µM,0.275
same,relative viability,[5]; first compound 0.08 µM,0.791
same,relative viability,[5]; first compound 0.253 µM,0.774
same,relative viability,[5]; first compound 0.8 µM,0.778
same,relative viability,[5]; first compound 2.53 µM,0.651
same,relative viability,[6]; first compound 0.08 µM,0.6
same,relative viability,[6]; first compound 0.253 µM,0.529
same,relative viability,[6]; first compound 0.8 µM,0.568
same,relative viability,[6]; first compound 2.53 µM,0.638
